Where two headings read alike, the source gives them in different places.
Key:
[1] = tested on: tetracycline resistant E. coli (tetA efflux pump); assay: microbe, parasite or virus in culture; format: cell-based, Escherichia coli; settings: microtiter, inhibition greater than 80% considered as the MIC
Description: Among the organisms studied are several strains of the bacterium E. coli.
Minimal Inhibitory Concentration (MIC) Procedure. […] Streak the E. coli (DH5α or K-12 MG1655) strain on L.B agar plates. […] Prepare initial concentration of all the compounds required. • 5. […] Vortex each test tube for 2-3 seconds. • 9. […] Vortex each test tube for 2-3 seconds. • 11. […]
(§1) The minimal inhibitory concentrations (MIC) of all the compounds against three bacterial strains were first determined using the microtiter technique as described above. […] Antimicrobial property of hydraphiles is attributed to the disruption of ion homeostasis in bacteria.

[2] = tested on: tetracycline resistant E. coli (tetA efflux pump); format: cell-based, Escherichia coli
Protocol: However, the bacterial strains used herein are multidrug resistant and the effect of hydraphiles on the inhibition of resistance mechanism (efflux pumps) was not known. The hydraphiles and the controls were tested next to see whether they could recover the activity of antibiotics against efflux pump expressing Gram-positive and Gram-negative bacteria. The MIC of antibiotics were determined in the presence of ½ [MIC] or ¼ [MIC] of each hydraphile or the controls used.

S. aureus 1199B = assay: MIC, S. aureus 1199B; format: cell-based, Staphylococcus aureus
Description: K. pneumoniae (ATCC BAA 2146; another Gram-negative bacterium) that expresses multiple classes of efflux pumps and NDM-1 gene was also used. This K. pneumoniae is a clinically relevant strain that was isolated from a patient. Gram-positive S. aureus 1199B was used that overexpresses the NorA efflux pump. Since ethidium bromide and norfloxacin are the substrates of efflux pumps, S. aureus 1199B was used to evaluate the activity of efflux pumps in the presence of the hydraphiles and other membrane disruptors.
as §1

NorA efflux pump [3] = biological target: T1, NorA efflux pump (Staphylococcus aureus, UniProt P0A0J7); assay: Ethidium bromide accumulation in S. aureus 1199B; format: cell-based; settings: compound at 4 μM
T1 construct: Gram-positive S. aureus 1199B was used that overexpresses the NorA efflux pump; endogenous in cells; host or cells: S. aureus 1199B
T1 sequence (P0A0J7 whole entry): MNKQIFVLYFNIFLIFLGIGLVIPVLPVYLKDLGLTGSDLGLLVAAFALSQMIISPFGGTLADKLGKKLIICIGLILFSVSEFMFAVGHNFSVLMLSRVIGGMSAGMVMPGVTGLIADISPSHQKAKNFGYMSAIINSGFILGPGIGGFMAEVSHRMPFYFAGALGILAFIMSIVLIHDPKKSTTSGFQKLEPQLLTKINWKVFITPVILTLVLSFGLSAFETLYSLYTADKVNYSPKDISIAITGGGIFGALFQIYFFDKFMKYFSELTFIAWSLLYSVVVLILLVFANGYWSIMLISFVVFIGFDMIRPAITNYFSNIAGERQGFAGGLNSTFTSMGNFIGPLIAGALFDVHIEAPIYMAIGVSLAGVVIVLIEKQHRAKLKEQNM
Protocol: To determine if the activity of efflux pump and accumulation of substrate in the cell cytoplasm was affected by hydraphiles, the S. aureus 1199B strain overexpressing the NorA efflux pump was used. Since ethidium bromide (EB) is one of the substrates of the norA efflux pump, fluorescence from DNA-EB complex was utilized to measure effect of hydraphiles on the norA efflux pump. First, EB was added to the S. aureus 1199B cells followed by hydraphiles or the controls. If the hydraphiles allows for EB accumulation in the cell cytoplasm, an increase in fluorescence would be expected. […] Next step was to determine if the accumulation of EB in the cell cytoplasm was due to the ability of hydraphiles to inhibit the activity of the norA efflux pump or just a simple membrane disruption mechanism.

NorA efflux pump [4] = biological target: T1, NorA efflux pump; assay: Ethidium bromide release from preloaded S. aureus 1199B (efflux pump inhibition); format: cell-based; settings: compound at 4 μM
Protocol: In a following experiment, the ability of hydraphiles to inhibit the activity of efflux pumps was determined. Specifically, the S. aureus cells were preloaded with EB using 100 μM CCCP. The cells were washed to remove extracellular EB and CCCP. The cells were then treated with hydraphiles. If hydraphiles inhibit the activity of efflux pumps, then there should be small or no change in fluorescence of EB-DNA complex. […] However, if there is no effect of hydraphiles on the efflux pump activity, EB would be released resulting in a decrease in fluorescence.

HeLa = assay: Cytotoxicity of hydraphiles to HeLa (XTT assay); settings: concentration not given
Cos-7 = assay: Cytotoxicity of hydraphiles to Cos-7 (XTT assay); settings: concentration not given
HEK-293 = assay: Cytotoxicity of hydraphiles to HEK-293 (XTT assay); settings: concentration not given
E. coli cells = assay: Potassium release from E. coli cells (potassium selective electrode); settings: control
Protocol: This change in potassium ion concentrations was measured using a Potassium selective electrode. […] Gramicidin D and valinomycin were used as controls. […] The potassium transport ability of C8-C14 hydraphiles was then tested at 4 μM.

Tet^R E. coli = assay: Resistance development by sequential culturing
Description: Sequential culturing method was used to determine if bacteria could develop resistance to the hydraphiles.

HEK-293 cells = format: cell-based, human
Description: It could be argued that hydraphiles could also localize and disrupt the mammalian cell membranes. […] These hydraphiles increased the permeability of E. coli cells at ½ MIC concentrations. […] It is concluded that C8-C14 hydraphiles can selectively increase the permeability of bacterial cells without affecting the permeability of mammalian cells. […] DMSO and Triton X-100 were used as controls.

[5] = amphiphile 1 μM (½[MIC] for C14 hydraphile)
[6] = amphiphile/control 1700 μM (0.1%)

With `N#CC(C#N)=NNc1cccc(Cl)c1` [CCCP] the “Minimal Inhibitory Concentrations (MIC) E. coli (Tet^R)” value ([1]; compound alone) was 56 µM, the Fold Enhancement [2, 5] was 1-fold and the “[Antibiotic] μM / Used (μM) in combination” value [2, 5] was 900 µM. For the same compound, the Fold Enhancement ([2]; amphiphile/control 21 μM) was 2-fold, the “[Tetracycline] μM in combination” value ([2]; amphiphile/control 21 μM) was 450 µM and the “[Tetracycline] μM in combination” value ([2]; amphiphile/control 42 μM) was 225 µM. The “Minimal Inhibitory Concentrations (MIC) S. aureus 1199B” value (S. aureus 1199B; compound alone, inhibition greater than 80% considered as the MIC) was ≤4 µM, the “accumulation of ethidium bromide (EB) in the cell cytoplasm” value (NorA efflux pump [3]) was “much lower” and the “inhibition of NorA activity, lower than that of hydraphiles” value (NorA efflux pump [4]) was 30%. The “cytotoxicity to HeLa (control)” value (HeLa) was “cytotoxic”, the “cytotoxicity to Cos-7 (control)” value (Cos-7) was “cytotoxic” and the “cytotoxicity to HEK-293 (control)” value (HEK-293) was “cytotoxic”.
For `COC(=O)[C@H]1[C@H]2C[C@@H]3c4[nH]c5cc(OC)ccc5c4CCN3C[C@H]2C[C@@H](OC(=O)c2cc(OC)c(OC)c(OC)c2)[C@@H]1OC` [Reserpine], the MIC ([1]; Escherichia coli, read-out: Minimal Inhibitory Concentrations (MIC) E. coli (Tet^R), compound alone) was > 128 µM, the Fold Enhancement ([2]; amphiphile/control 64 μM) was 2-fold and the “[Tetracycline] μM in combination” value ([2]; amphiphile/control 64 μM) was 450 µM. For the same compound, the “[Tetracycline] μM in combination” value ([2]; amphiphile/control 128 μM) was 225 µM, the MIC (S. aureus 1199B; Staphylococcus aureus, 1199B, read-out: Minimal Inhibitory Concentrations (MIC) S. aureus 1199B) was > 128 µM and the “accumulation of ethidium bromide (EB) in the cell cytoplasm” value (NorA efflux pump [3]) was “much lower”. For the same compound, the “inhibition of NorA activity, lower than that of hydraphiles” value (NorA efflux pump [4]) was 30%.
With `CC(C)[C@@H]1NC(=O)[C@H](C)OC(=O)[C@@H](C(C)C)NC(=O)[C@@H](C(C)C)OC(=O)[C@H](C(C)C)NC(=O)[C@H](C)OC(=O)[C@@H](C(C)C)NC(=O)[C@@H](C(C)C)OC(=O)[C@H](C(C)C)NC(=O)[C@H](C)OC(=O)[C@@H](C(C)C)NC(=O)[C@@H](C(C)C)OC1=O` [Valinomycin, reference compound] the Fold Enhancement ([2]; amphiphile/control 20 μM) was 2-fold, the “[Tetracycline] μM in combination” value ([2]; amphiphile/control 20 μM) was 450 ± 100 µM and the “ion transport from E. coli (potassium)” value (E. coli cells) was “no change in ion transport”.
`CN(C)c1ccc(O)c2c1C[C@H]1C[C@H]3[C@H](N(C)C)C(O)=C(C(N)=O)C(=O)[C@@]3(O)C(O)=C1C2=O` [minocycline] was tested, and the “time in which Tet^R E. coli developed resistance” value (Tet^R E. coli) was 4 to 6 days.
Triton X-100 [reference compound] was tested, and the “[Tetracycline] μM in combination” value ([2]; amphiphile/control 20 μM) was 450 ± 100 µM, the Fold Enhancement [2, 6] was 2-fold and the “[Tetracycline] μM in combination” value [2, 6] was 450 ± 100 µM. For the same compound, the “viability and permeability of HEK-293 cells” value (HEK-293 cells) was “killed all the HEK-293 cells”.
